Measured values reported in PubChem BioAssay (NCI).
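The compound was tested at five concentrations on cells cultured in 96-well plates, with a 48-hour exposure period. Abbreviation: GI50, concentration required for 50% inhibition of growth. Definition used: TGI = concentration required for complete inhibition of growth.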

Assays:
Assay in all cases: growth of human tumour cells (NCI), 48 h
[1] = system: 786-0 renal
[2] = system: A498 renal
[3] = system: A549 NSCLC
[4] = system: ACHN renal
[5] = system: BT-549 breast
[6] = system: CAKI-1 renal
[7] = system: CCRF-CEM leukemia
[8] = system: COLO 205 colon
[9] = system: DU-145 prostate
[10] = system: EKVX NSCLC
[11] = system: HCC-2998 colon
[12] = system: HCT-116 colon
[13] = system: HCT-15 colon
[14] = system: HL-60(TB) leukemia
[15] = system: HOP-62 NSCLC
[16] = system: HOP-92 NSCLC
[17] = system: HS 578T breast
[18] = system: HT29 colon
[19] = system: IGROV1 ovarian
[20] = system: K-562 leukemia
[21] = system: KM12 colon
[22] = system: LOX IMVI melanoma
[23] = system: M14 melanoma
[24] = system: MALME-3M melanoma
[25] = system: MCF7 breast
[26] = system: MDA-MB-231 breast
[27] = system: MDA-MB-435
[28] = system: MDA-MB-468 breast
[29] = system: MOLT-4 leukemia
[30] = system: NCI-H226 lung
[31] = system: NCI-H23 lung
[32] = system: NCI-H460 lung
[33] = system: NCI-H522 lung
[34] = system: NCI/ADR-RES ovarian
[35] = system: OVCAR-3 ovarian
[36] = system: OVCAR-4 ovarian
[37] = system: OVCAR-5 ovarian
[38] = system: OVCAR-8 ovarian
[39] = system: PC-3 prostate
[40] = system: RPMI-8226 leukemia
[41] = system: RXF 393 renal
[42] = system: SF-268 CNS
[43] = system: SF-295 CNS
[44] = system: SF-539 CNS
[45] = system: SK-MEL-2 melanoma
[46] = system: SK-MEL-28 melanoma
[47] = system: SK-MEL-5 melanoma
[48] = system: SK-OV-3 ovarian
[49] = system: SN12C renal
[50] = system: SNB-19 CNS
[51] = system: SNB-75 CNS
[52] = system: SR leukemia
[53] = system: SW-620 colon
[54] = system: T-47D breast
[55] = system: TK-10 renal
[56] = system: U251 CNS
[57] = system: UACC-257 melanoma
[58] = system: UACC-62 melanoma
[59] = system: UO-31 renal

COc1ccc(Nc2nc(N)n(Cc3cccc(Br)c3)n2)cc1
GI50 [1]: 34.3 µM
TGI [1]: > 100 µM
GI50 [2]: 15.9 µM
TGI [2]: 76.4 µM
GI50 [3]: 36 µM
TGI [3]: > 100 µM
GI50 [4]: 29.7 µM
TGI [4]: > 100 µM
GI50 [5]: 14.5 µM
TGI [5]: > 100 µM
GI50 [6]: 15 µM
TGI [6]: > 100 µM
GI50 [7]: 26.3 µM
TGI [7]: > 100 µM
GI50 [8]: 48.4 µM
TGI [8]: > 100 µM
GI50 [9]: 65.6 µM
TGI [9]: > 100 µM
GI50 [10]: 18 µM
TGI [10]: > 100 µM
GI50 [11]: 34.3 µM
TGI [11]: > 100 µM
GI50 [12]: 27.5 µM
TGI [12]: > 100 µM
GI50 [13]: 30.8 µM
TGI [13]: > 100 µM
GI50 [14]: 18.4 µM
TGI [14]: > 100 µM
GI50 [15]: > 100 µM
TGI [15]: > 100 µM
GI50 [16]: 11.4 µM
TGI [16]: 68.4 µM
GI50 [17]: 15.4 µM
TGI [17]: > 100 µM
GI50 [18]: 64.2 µM
TGI [18]: > 100 µM
GI50 [19]: 26.1 µM
TGI [19]: > 100 µM
GI50 [20]: 28.7 µM
TGI [20]: > 100 µM
GI50 [21]: 26.7 µM
TGI [21]: > 100 µM
GI50 [22]: 31.5 µM
TGI [22]: > 100 µM
GI50 [23]: 36.8 µM
TGI [23]: > 100 µM
GI50 [24]: 27.2 µM
TGI [24]: > 100 µM
GI50 [25]: 26 µM
TGI [25]: > 100 µM
GI50 [26]: 37.1 µM
TGI [26]: > 100 µM
GI50 [27]: 32.8 µM
TGI [27]: > 100 µM
GI50 [28]: 19.3 µM
TGI [28]: 65.5 µM
GI50 [29]: 26.9 µM
TGI [29]: > 100 µM
GI50 [30]: 27.2 µM
TGI [30]: > 100 µM
GI50 [31]: 32.7 µM
TGI [31]: > 100 µM
GI50 [32]: 36.2 µM
TGI [32]: > 100 µM
GI50 [33]: 26.5 µM
TGI [33]: > 100 µM
GI50 [34]: 33.3 µM
TGI [34]: > 100 µM
GI50 [35]: 35.8 µM
TGI [35]: > 100 µM
GI50 [36]: 31.7 µM
TGI [36]: > 100 µM
GI50 [37]: 50.3 µM
TGI [37]: > 100 µM
GI50 [38]: 42.1 µM
TGI [38]: > 100 µM
GI50 [39]: 25.9 µM
TGI [39]: > 100 µM
GI50 [40]: 29.5 µM
TGI [40]: > 100 µM
GI50 [41]: 14.3 µM
TGI [41]: 66 µM
GI50 [42]: 27.2 µM
TGI [42]: > 100 µM
GI50 [43]: 28 µM
TGI [43]: > 100 µM
GI50 [44]: 29.6 µM
TGI [44]: > 100 µM
GI50 [45]: 31.1 µM
TGI [45]: > 100 µM
GI50 [46]: 35.7 µM
TGI [46]: > 100 µM
GI50 [47]: 19.5 µM
TGI [47]: 44 µM
GI50 [48]: 93.2 µM
TGI [48]: > 100 µM
GI50 [49]: 33.4 µM
TGI [49]: > 100 µM
GI50 [50]: 48.3 µM
TGI [50]: > 100 µM
GI50 [51]: 13.9 µM
TGI [51]: > 100 µM
GI50 [52]: 91.7 µM
TGI [52]: > 100 µM
GI50 [53]: 57.5 µM
TGI [53]: > 100 µM
GI50 [54]: 44.5 µM
TGI [54]: > 100 µM
GI50 [55]: 61.7 µM
TGI [55]: > 100 µM
GI50 [56]: 42.1 µM
TGI [56]: > 100 µM
GI50 [57]: 38.3 µM
TGI [57]: > 100 µM
GI50 [58]: 32.8 µM
TGI [58]: > 100 µM
GI50 [59]: 17 µM
TGI [59]: > 100 µM
